Measurements reported in US20080312309A1, “CONTROLLED RELEASE ORAL FORMULATIONS OF ION CHANNEL MODULATING COMPOUNDS AND RELATED METHODS FOR PREVENTING ARRHYTHMIA” (priority 2007, published 2008).
Marks after values point to notes of the source that are not given here.

Experiment: Disposition and mass balance of 14C-vernakalant hydrochloride after single IV and oral doses in CYP2D6 EMs and PMs
Assay type: in vivo, human
Details: for AUC0-∞ / Cmax / Tmax / t1/2: plasma, single 240-mg dose
From the text: This phase 1 study used an open-label, single-sequence, crossover design. […] The specific activity of the administered dose was 0.329 μCi/mg, yielding a total radioactive dose of 78.96 μCi. Participants remained confined to the center for 7 days after drug administration to ensure collection of urine and fecal samples for recovery of radioactivity. After an additional 2-week follow-up as outpatients, the cohort returned to the center 3 weeks after each dose (i.e., days 21 and 42) for end-of-study assessments.
Additional samples were obtained 5 minutes into the IV infusion and at its end.
Urine and fecal specimens were also collected at the end-of-study assessment. Saliva for ^14C analysis was obtained before dosing, 0.25, 0.5, 2, and 8 hours afterward, and on occurrence of any treatment-related adverse event related to dysgeusia. Vomitus for ^14C analysis was collected at any time over the 7 days after oral administration when vomiting occurred.
Adverse events were evaluated daily, classified by intensity and association with treatment, and coded according to the MedDRA dictionary version 6.1. Vital signs, physical examination, 12-lead electrocardiograph (ECG), and laboratory tests including clinical chemistry, hematology, and urinalysis were evaluated at screening, 7 days after dosing, and at the end-of-study assessment. […] In addition, vital signs and 12-lead ECG were obtained 15 minutes before dosing; the vital signs assessment was repeated 15, 30, 60, and 90 minutes after dosing and then daily for 7 days.
Plasma samples first underwent solid-phase extraction on SPE cartridges containing a 30-mg MCX phase (Waters, Milford, Mass.); urine samples were analyzed directly. For the determination of glucuronide and sulphate conjugates, plasma and urine samples underwent an enzymatic deconjugation with a solution of β-glucuronidase (5000 units/mL in 0.1 M sodium acetate buffer pH 5.0) and were incubated for 30 hours (plasma) or 20 hours (urine) at 37° C. Subsequently, the urine samples were injected directly on to the column and the plasma samples were further treated with SPE as described above. […] The other part of the LC column effluent was directed to model API 3000 MS (MDX Sciex, Concord, Canada) with ionspray detection for structural confirmation and identification.
Pharmacokinetic values were analyzed using noncompartmental analysis by means of WinNonlin version 5.0 (Pharsight Corp, Mountain View, Calif.). […] Oral bioavailability (F) was determined from the ratio of AUC0-∞ after oral dosing to AUC0-∞ after IV dosing, and was used to calculate the oral clearance (CL/F), Vdz after oral dosing (Vdz/F), and Vss after oral dosing (Vss/F).
The amount of these analytes excreted in urine was calculated according to time period and cumulatively over the 7 days. Total ^14C in urine and feces (and vomitus, if applicable) was also determined by time and cumulatively over the study for the mass-balance estimation.
Concentrations below the lower limit of quantitation were set to 0. […] Safety parameters were summarized descriptively for the entire cohort.

[1] = IV infusion of 14C-vernakalant, EMs (n = 5)
[2] = IV infusion of 14C-vernakalant, PMs (n = 2)
[3] = oral administration of 14C-vernakalant, EMs (n = 5)
[4] = oral administration of 14C-vernakalant, PMs (n = 2)
[5] = IV infusion, EMs (n = 5), listed as Compound 2G
[6] = oral administration, EMs (n = 5)
[7] = oral administration, PMs (n = 2)

COc1cc(CCO[C@@H]2CCCC[C@H]2N2CC[C@@H](O)C2)ccc1OC1OC(C(=O)O)C(O)C(O)C1O (stereo partly drawn) [Compound 2 glucuronide]
Cumulative Amount Excreted in Urine During the 7 Days After Administration [1]: 120.01 ± 19.03 mg
Cumulative Amount Excreted in Urine During the 7 Days After Administration [2]: 11.36 ± 5.52 mg
Cumulative Amount Excreted in Urine During the 7 Days After Administration [3]: 121.76 ± 44.38 mg
Cumulative Amount Excreted in Urine During the 7 Days After Administration [4]: 12.03 ± 0.51 mg
mean AUC0-∞, times higher in EMs than in PMs (plasma metabolite): 10 times
AUC0-∞ (IV infusion, EMs (n = 5)): 20,711 ± 2708 ng · h/mL
Cmax (IV infusion, EMs (n = 5)): 3489 ± 371.4 ng/mL
Tmax (IV infusion, EMs (n = 5)): 1.44 ± 0.69 h
t1/2 (IV infusion, EMs (n = 5)): 3.29 ± 0.21 h
Tmax [5]: 1.4 h
t1/2 [5]: 3.3 h
AUC0-∞ (IV infusion, PMs (n = 2)): 1933 ± 360.0 ng·h/mL
Cmax (IV infusion, PMs (n = 2)): 180.5 ± 48.8 ng/mL
Tmax (IV infusion, PMs (n = 2)): 2.17 ± 0.0 h
t1/2 (IV infusion, PMs (n = 2)): 5.59 ± 0.73 h
AUC0-∞ [6]: 21,182 ± 3137 ng · h/mL
Cmax [6]: 3824 ± 349.3 ng/mL
Tmax [6]: 2.4 h
t1/2 [6]: 3.2 h
AUC0-∞ [7]: 2025 ± 65.9 ng·h/mL
Cmax [7]: 230.5 ± 4.99 ng/mL
Tmax [7]: 2.00 ± 0.0 h
t1/2 [7]: 5.01 ± 0.49 h

COc1cc(CCO[C@@H]2CCCC[C@H]2N2CC[C@@H](O)C2)ccc1O [Compound 2]
Cumulative Amount Excreted in Urine During the 7 Days After Administration [1]: 3.11 ± 0.85 mg
Cumulative Amount Excreted in Urine During the 7 Days After Administration [2]: 0.48 ± 0.02 mg
Cumulative Amount Excreted in Urine During the 7 Days After Administration [3]: 3.88 ± 1.14 mg
Cumulative Amount Excreted in Urine During the 7 Days After Administration [4]: 0.62 ± 0.19 mg
AUC0-∞ (IV infusion, EMs (n = 5)): 202.5 ± 66.6 ng·h/mL
Cmax (IV infusion, EMs (n = 5)): 68.6 ± 18.0 ng/mL
t1/2 (IV infusion, EMs (n = 5)): 2.28 ± 0.29 h
Cmax (IV infusion, PMs (n = 2)): 3.31 ± 4.67 ng/mL
AUC0-∞ [6]: 225.2 ± 76.8 ng·h/mL
Cmax [6]: 63.2 ± 21.9 ng/mL
t1/2 [6]: 2.19 ± 0.29 h
Cmax [7]: 6.25 ± 8.84 ng/mL

COc1ccc(CCO[C@@H]2CCCC[C@H]2N2CC[C@@H](O)C2)cc1O [Compound 3]
Cumulative Amount Excreted in Urine During the 7 Days After Administration [1]: 0.04 ± 0.02 mg
Cumulative Amount Excreted in Urine During the 7 Days After Administration [2]: 0.16 ± 0.12 mg
detectability in plasma (after vernakalant hydrochloride dosing): not detectable in plasma at most time points
Cumulative Amount Excreted in Urine During the 7 Days After Administration [3]: 0.05 ± 0.03 mg
Cumulative Amount Excreted in Urine During the 7 Days After Administration [4]: 0.12 ± 0.05 mg
Cmax (IV infusion, EMs (n = 5)): 2.85 ± 3.94 ng/mL
Tmax (IV infusion, EMs (n = 5)): 0.34 ± 0.12 h
Cmax (IV infusion, PMs (n = 2)): 3.72 ± 5.26 ng/mL
Tmax (IV infusion, PMs (n = 2)): 0.42^† h
Cmax [6]: 1.41 ± 3.16 ng/mL
Tmax [6]: 0.77^† h
Cmax [7]: 9.08 ± 2.16 ng/mL
Tmax [7]: 1.25 ± 1.06 h

COc1ccc(CCO[C@@H]2CCCC[C@H]2N2CC[C@@H](O[C@@H]3O[C@H](C(=O)O)[C@@H](O)[C@H](O)[C@H]3O)C2)cc1OC [Vernakalant glucuronide]
Cumulative Amount Excreted in Urine During the 7 Days After Administration [1]: 8.91 ± 2.86 mg
Cumulative Amount Excreted in Urine During the 7 Days After Administration [2]: 44.22 ± 15.10 mg
Cumulative Amount Excreted in Urine During the 7 Days After Administration [3]: 11.31 ± 6.48 mg
Cumulative Amount Excreted in Urine During the 7 Days After Administration [4]: 50.20 ± 14.99 mg
AUC0-∞, times higher in PMs than EMs (plasma metabolite): approximately 4 times
AUC0-∞ (IV infusion, EMs (n = 5)): 1791 ± 764.1 ng·h/mL
Cmax (IV infusion, EMs (n = 5)): 455.6 ± 118.9 ng/mL
Tmax (IV infusion, EMs (n = 5)): 0.48 ± 0.13 h
t1/2 (IV infusion, EMs (n = 5)): 2.76 ± 0.65 h
AUC0-∞ (IV infusion, PMs (n = 2)): 8074 ± 118.6 ng·h/mL
Cmax (IV infusion, PMs (n = 2)): 942.0 ± 213.5 ng/mL
Tmax (IV infusion, PMs (n = 2)): 1.67 ± 0.71 h
t1/2 (IV infusion, PMs (n = 2)): 6.58 ± 2.59 h
AUC0-∞ [6]: 2076 ± 809.3 ng·h/mL
Cmax [6]: 496.0 ± 158.5 ng/mL
Tmax [6]: 1.80 ± 0.45 h
t1/2 [6]: 2.57 ± 0.41 h
AUC0-∞ [7]: 7759 ± 1252 ng·h/mL
Cmax [7]: 1078 ± 297.7 ng/mL
Tmax [7]: 1.38 ± 0.88 h
t1/2 [7]: 4.32 ± 0.27 h
